PMC5853558, “De novo identification of lipid II binding lipopeptides with antibacterial activity against vancomycin-resistant bacteria” (Chemical Science, 2017)
Values after ≈ are worked out from the molar mass of the structure shown. *1 amine or outer side, *2 acyl side, *3 side chain or, on linkers, in order; H or OH if unused. Where a SMILES comes first, the peptide text is derived from it. Bridges are numbered along the chain shown (N, C = ends). [ ]: non-standard residue; d: D form. The star is where a group is joined. TBMB = c1c(C[*:1])cc(C[*:3])cc1C[*:2]; NH(CH2)11CH3 = CCCCCCCCCCCCN*; NHDecyl = CCCCCCCCCCN*

Tests used:
B. subtilis (168) = assay: microbe, parasite or virus in culture; assay type: cell-based
Protocol: (§1) Section 4 Biological and biochemical experiments
(§2) 4.1 Minimum inhibitory concentration assay
(§3) MIC values were determined by using the broth microdilution method. Peptides were dissolved first in DMSO and diluted with broth so that the final peptide concentration was 1024 µg/ml and the DMSO concentration was 4%. Peptide serial dilutions were made in TSB in a polypropylene 96-wells plate using 50 µl volumes. An overnight culture of the organism of interest was diluted to and OD600 of 0.01 and grown until they reach 0.5. The culture was then diluted to 1 x 10^6 CFU/ml and 50 µl of this suspension was added to each well. The highest concentrations were then 512 µg/ml peptide and 2% DMSO. The plates were incubated at the preferred growth temperature of the organism that was used and 250 rpm. […] When […]
(§4) determining the MICs of the lipidated peptides, the lipopeptides were first dissolved in DMSO and diluted with TSB so that the peptide concentration was 128 µg/ml and the DMSO concentration was 4%. After inoculation the highest peptide concentration evaluated was 64 µg/ml and the DMSO concentration was 2%. A DMSO control was tested for each strain to ensure the DMSO did not affect the growth of the particular strain. […]

S. epidermidis (1587) = assay: microbe, parasite or virus in culture; assay type: cell-based
Protocol: as §1, §2, §3, §4

S. pyogenes (5448) = assay: microbe, parasite or virus in culture; assay type: cell-based
Protocol: as §1, §2, §3, §4

E. faecium (VRE2297) = assay: microbe, parasite or virus in culture; assay type: cell-based, Enterococcus faecium
Protocol: as §1, §2, §3, §4

E. faecium (VRE7391) = assay: microbe, parasite or virus in culture; assay type: cell-based, Enterococcus faecium
Protocol: as §1, §2, §3, §4

E. faecium (VRE155) = assay: microbe, parasite or virus in culture; assay type: cell-based, Enterococcus faecium
Protocol: as §1, §2, §3, §4

E. faecium (E980) = assay: microbe, parasite or virus in culture; assay type: cell-based, Enterococcus faecium
Protocol: as §1, §2, §3, §4

E. faecium (VRE0321) = assay: microbe, parasite or virus in culture; assay type: cell-based, Enterococcus faecium
Protocol: as §1, §2, §3, §4

M. luteus (NCTC2665) = assay: microbe, parasite or virus in culture; assay type: cell-based, Micrococcus luteus
Protocol: as §1, §2, §3, §4

Sheep blood = assay: Hemolysis assay; assay type: cell-based
Protocol: Sheep blood in Alsever’s solution (2 mL) was diluted with PBS (13 mL) and centrifuged (2,000 RPM, 5 min). The supernatant was discarded and the cells were washed with another 13 mL of PBS and centrifuged. Washing was continued until the supernatant was clear. After the final wash the supernatant was discarded and the packed cells were kept on ice. Serial dilutions of each peptide were made in 50 µl PBS with the highest tested concentration 64 µg/mL in PBS, 2%
DMSO. The packed cells (150 µL) were suspended in PBS (10 mL) and 50 µL of this suspension was added to each well. A well plate column containing 0.1% triton x-100 in DI water was used as the 100% lysis control and a second column with PBS (with 2% DMSO) served as the 0% lysis control. After incubation at 37°C for 1h the plates were centrifuged (2,000 RPM, 5 min) and 25 µL of the supernatant was added to 100 µL DI water in a flat-bottom 96-wells plate (polystyrene). […]

[1] = Supplemental table S9, MIC values of Table 2 expressed in µM
[2] = Table 2, broth microdilution in TSB, 16 h, read visually, highest tested 64 µg/ml
[3] = Supplemental table S9, vancomycin-resistant isolate, MIC values of Table 2 expressed in µM
[4] = Table 2, vancomycin-resistant isolate from hospitalized patients, broth microdilution in TSB, 16 h, highest tested 64 µg/ml
[5] = Table 2, broth microdilution in TSB, 16 h, read visually, highest tested 64 µg/ml, 2% DMSO
[6] = Supplemental table S9, 1 hour incubation at 37 °C, lipopeptides at 32 µg/mL
[7] = Supplemental table S7, P8 with varying lipids, broth microdilution

| SMILES | MIC B. subtilis (168) (B. subtilis (168); [1]) [µM] | MIC B. subtilis (168) (B. subtilis (168); [2]) [μg mL^–1] | MIC S. epidermidis (1587) (S. epidermidis (1587); [1]) | MIC S. epidermidis (1587) (S. epidermidis (1587); [2]) [μg mL^–1] | MIC S. pyogenes (5448) (S. pyogenes (5448); [1]) [µM] | MIC S. pyogenes (5448) (S. pyogenes (5448); [2]) [μg mL^–1] | MIC E. faecium (VRE2297) (E. faecium (VRE2297); [3]) | MIC E. faecium (VRE2297) (E. faecium (VRE2297); [4]) [μg mL^–1] | MIC E. faecium (VRE7391) (E. faecium (VRE7391); [4]) | MIC E. faecium (VRE155) (E. faecium (VRE155); [4]) | MIC E. faecium (E980) (E. faecium (E980); [1]) [µM] | MIC E. faecium (E980) (E. faecium (E980); [2]) [μg mL^–1] | MIC E. faecium (VRE0321) (E. faecium (VRE0321); [4]) | MIC M. luteus (NCTC2665) (M. luteus (NCTC2665); [1]) [µM] | MIC M. luteus (NCTC2665) (M. luteus (NCTC2665); [5]) [μg mL^–1] | Hemolysis (Sheep blood; [6]) [%] | MIC E. faecium (VRE7391) (E. faecium (VRE7391); [3]) | other results |
| --- | --- | --- | --- | --- | --- | --- | --- | --- | --- | --- | --- | --- | --- | --- | --- | --- | --- | --- |
| CCCCCCCCCCNC(=O)CNC(=O)[C@H]1CSCc2cc3cc(c2)CSC[C@@H](NC(=O)[C@@H](CC(C)C)NC(=O)[C@@H](CC(C)C)NC(=O)[C@@H](CO)NC(=O)[C@@H](CCC(N)=O)NC(=O)[C@@H](CC(C)C)NC(=O)[C@@H](CC(C)C)NC(=O)[C@H](NC(=O)[C@@H](C)N)CSC3)C(=O)N2CCC[C@@H]2C(=O)N[C@H](Cc2ccc(O)cc2)C(=O)N[C@H](CO)C(=O)N[C@H]([C@H](C)O)C(=O)N[C@H](CCCNC(=N)N)C(=O)N[C@H](C)C(=O)N1 [P8-D-(H14R, R15A)-C10] (H-[dA][dC][dL][dL][dQ][dS][dL][dL][dC][dP][dY][dS][dT][dR][dA][dC]G-NHDecyl; linker 2-9-16 via TBMB; N-terminus assumed) | 15.6 (≈ 32 µg/mL) | 16 | > 62. 4 µM | >64 | 15.6 (≈ 32 µg/mL) | 16 | 15.6 µM (≈ 32 µg/mL) | 16 | 8–16 μg mL^–1 | 8–16 μg mL^–1 | 31.2 (≈ 64 µg/mL) | 32 | 8–16 μg mL^–1 | 3.9 (≈ 8.01 µg/mL) | 4 | 2 |  |  |
| CCCCCCCCCCNC(=O)CNC(=O)[C@H]1CSCc2cc3cc(c2)CSC[C@@H](NC(=O)[C@@H](CC(C)C)NC(=O)[C@@H](CC(C)C)NC(=O)[C@@H](CO)NC(=O)[C@@H](CCC(N)=O)NC(=O)[C@@H](CC(C)C)NC(=O)[C@@H](CC(C)C)NC(=O)[C@H](NC(=O)[C@@H](C)N)CSC3)C(=O)N[C@H](CCCNC(=N)N)C(=O)N[C@H](Cc2ccc(O)cc2)C(=O)N[C@H](CO)C(=O)N[C@H]([C@H](C)O)C(=O)N[C@H](Cc2c[nH]cn2)C(=O)N[C@H](C)C(=O)N1 [P8-D-(P10R, R15A)-C10] (H-[dA][dC][dL][dL][dQ][dS][dL][dL][dC][dR][dY][dS][dT][dH][dA][dC]G-NHDecyl; linker 2-9-16 via TBMB; N-terminus assumed) | 7.7 (≈ 16.1 µg/mL) | 8 | > 61. 2 µM | >64 | 15.3 (≈ 32 µg/mL) | 16 | 30.6 µM (≈ 64 µg/mL) | 32 | 16 μg mL^–1 | 8 μg mL^–1 | 30.6 (≈ 64 µg/mL) | 32 | 16 μg mL^–1 | 3.8 (≈ 7.95 µg/mL) | 4 | 0 | 15.3 µM (≈ 32 µg/mL) | MIC E. faecium (VRE155) (E. faecium (VRE155); [3]): 7.7 µM (≈ 16.1 µg/mL); MIC E. faecium (VRE0321) (E. faecium (VRE0321); [3]): 15.3 µM (≈ 32 µg/mL) |
| CCCCCCCCCCNC(=O)CNC(=O)[C@H]1CSCc2cc3cc(c2)CSC[C@@H](NC(=O)[C@@H](CC(C)C)NC(=O)[C@@H](CC(C)C)NC(=O)[C@@H](CO)NC(=O)[C@@H](CCC(N)=O)NC(=O)[C@@H](CC(C)C)NC(=O)[C@@H](CC(C)C)NC(=O)[C@H](NC(=O)[C@@H](C)N)CSC3)C(=O)N2CCC[C@@H]2C(=O)N[C@H](Cc2ccc(O)cc2)C(=O)N[C@H](CO)C(=O)N[C@H]([C@H](C)O)C(=O)N[C@H](Cc2c[nH]cn2)C(=O)N[C@H](C)C(=O)N1 [P8-D-(R15A)-C10] (H-[dA][dC][dL][dL][dQ][dS][dL][dL][dC][dP][dY][dS][dT][dH][dA][dC]G-NHDecyl; linker 2-9-16 via TBMB; N-terminus assumed) | > 63.1 | >64 | > 63. 1 µM | >64 |  | 16 | > 63. 1 µM | >64 | >64 μg mL^–1 | 16 μg mL^–1 | 63.1 (≈ 128 µg/mL) | 64 | 8–16 μg mL^–1 | 3.9 (≈ 7.93 µg/mL) | 4 | 0 | > 63. 1 µM | MIC M. luteus (NCTC2665) (M. luteus (NCTC2665); Table 2, broth microdilution in TSB, 16 h, read visually, highest tested 64 µg/ml, 2% DMSO, listed as P8-R15A-C10): retained activity; Hemolysis (Sheep blood; Table 2, sheep blood cells in PBS, lipopeptides at 32 μg mL^–1, 1 hour at 37 °C, absorption at 414 nm, 0.1% triton x-100 = 100% lysis, listed as P8-R15A-C10): completely non-hemolytic |
| CCCCCCCCCCCCNC(=O)CNC(=O)[C@H]1CSCc2cc3cc(c2)CSC[C@@H](NC(=O)[C@@H](CC(C)C)NC(=O)[C@@H](CC(C)C)NC(=O)[C@@H](CO)NC(=O)[C@@H](CCC(N)=O)NC(=O)[C@@H](CC(C)C)NC(=O)[C@@H](CC(C)C)NC(=O)[C@H](NC(=O)[C@@H](C)N)CSC3)C(=O)N2CCC[C@@H]2C(=O)N[C@H](Cc2ccc(O)cc2)C(=O)N[C@H](CO)C(=O)N[C@H]([C@H](C)O)C(=O)N[C@H](Cc2c[nH]cn2)C(=O)N[C@H](CCCNC(=N)N)C(=O)N1 [Peptide P8-D-C12] (H-[dA][dC][dL][dL][dQ][dS][dL][dL][dC][dP][dY][dS][dT][dH][dR][dC]G-{NH(CH2)11CH3}; linker 2-9-16 via TBMB; N-terminus assumed) |  |  |  |  |  |  |  |  |  |  |  |  |  |  |  |  |  | MIC VRE E155 (E. faecium (VRE155); [7]): 8 µg/mL (≈ 3.73 µM); MIC M. luteus (M. luteus (NCTC2665); [7]): 4 to 8 µg/mL; Hemolysis 32 µg/ml (after 1 h) (Sheep blood; Supplemental table S7, sheep blood cells in PBS, 32 µg/ml, 1 h at 37°C, absorption at 414 nm): 9% |
